Results as given in paper PMC4761914, “Improvement of pyrazolo[3,4-d]pyrimidines pharmacokinetic properties: nanosystem approaches for drug delivery” (Scientific Reports, 2016).
Where two headings read alike, the source gives them in different places.

Columns and labels:
[1] = H2O, 20 °C, 24 hrs; cited from earlier work
[2] = design: method as in PMID 25469771, PMID 21050441, PMID 21856155; details: percentage of unmodified drug, human liver microsomes, 37 °C, 60 min; cited from earlier work
[3] = Entrapment efficiency by HPLC-UV-MS after disruption of nanoparticles; type: physicochemical; details: compound encapsulated in albumin nanoparticles
Protocol: The albumin nanoparticles were prepared by mixing 100 μL of compound solution in EtOH (1 mg/mL) with 900 μL of HSA solution in PBS (pH 7.4, 25 mM) (5 mg/mL)[52]. Cysteine was added up to a final concentration of 5 mg/mL, and the resulting solution was kept at 37 °C, for 45 min. The excess of cysteine was eliminated by dialysis using a cellulose membrane (capacity 60 mL/ft, cut-off 14 kDa, diameter 16 mm, width 25mm). D,L-glyceraldehyde was added to this solution, to a final concentration of 5 μM[53]. The sample was then filtered through a nylon syringe filter with pores of 0.2 μm (Acrodisc 25 mm Syringe Filter) to obtain a sterile solution of the drug-albumin nanoparticles. The concentration of the compound in the final sample was determined by HPLC-UV-MS (HPLC-UV-MS method in the supporting material), after denaturation of the protein by acetonitrile and centrifugation (4500 rpm, 15 min, 4 °C).
The method developed by A.D. Bangham, namely thin layer evaporation, was used for the preparation of LP-1, LP-2, LP-3 and LP-4. Lipids DPPC, Chol and MPEG-2000-DPPE Na (molar ratio 20:10:1) were dissolved in a mixture of CHCl3:MeOH = 3:1 (3 mL, round-bottomed flask). A 1 mM solution of each compound (1, 2, 3, 4) in CHCl3:MeOH = 3:1 was prepared. […] The drug concentration was determined after disruption of liposomes by treatment with ethanol at 40 °C (1:1 = v/v). The compound was extracted and quantified by HPLC-UV-MS (HPLC-UV-MS method in the supporting material). […]
E.E.%c NDd NDd NDd NDd NDd NDd NDd NDd NDd NDd NDd aCalculated on the basis of the total amount of compound dissolved in the organic solvent; bat 37 °C; c at 45°C. dND: compound not detected after filtration 0.2 µm syringe filter. […]
The percentage of entrapment efficacy was calculated with the following equation: […]
where, Fi is the concentration of compound determined in the nano-preparation (evaluated by HPLC-UV-MS, after disruption of nanoparticles) and Ft is the theoretical final concentration (Calculated on the basis of the total amount of compound dissolved in the organic solvent). […]

[4] = design: method as in PMID 25469771, PMID 21050441, PMID 21856155; details: cited from earlier work; for PAMPA: pH 7.4, 5 hours, room temperature; for MR (Membrane Retention): percentage of compound unable to reach the acceptor compartment
SH-SY5Y NB cells = test: Antiproliferative activity / cytotoxicity, Trypan blue assay; type: cell-based; details: Homo sapiens
Protocol: In vitro experiments were carried out using the human NB cell line SH-SY5Y. Cells were purchased from American Type Culture Collection (ATCC, Manassas, VA, USA) and were cultured in DMEM/F12 1:1 medium supplemented with 10% FBS, 2 mM L-glutamine and 10000 units/mL Penicillin/Streptomycin at 37 °C in 5% CO2 atmosphere. In order to determine the antiproliferative effect of drugs (1–4) and nanosystems, SH-SY5Y cells were seeded at 10^5 cells/well density and treated with albumin (PBS solution, pH 7.4) or empty liposomes (0.9% NaCl solution, pH 7.4), compounds encapsulated with albumin (PBS solution, pH 7.4) or liposomes LP-1, LP-3 and LP-4 (0.9% NaCl solution, pH 7.4) and free compounds 1, 3 and 4 (DMSO solution) at increasing concentrations (0.1 μM, 1.0 μM, 10 μM and 50 μM). IC50 determination for LP-2 and compound 2 was performed testing the following concentrations as well: 0.01 μM, 0.05 μM, 0.5 μM and 5 μM. The cultures were maintained at 37 °C in 5% v/v CO2 for 24, 48 and 72 h. Cell number and viability were evaluated using the Bürker chamber, after treatment with Trypan Blue. IC50 was calculated by GraphPad Prism 6.0 software using the best fitting sigmoid curve.

Src = target: Src; design: method as in PMID 25469771, PMID 21050441, PMID 21856155; details: cited from earlier work

drug loading [3]	SMILES	Aqueous Solubility [1]	Metabolic Stability [2] [%]	PAMPA [4]	MR (Membrane Retention) [4] [%]	IC50 (SH-SY5Y NB cells; 24 h, read-out: IC50 24 h) [µM]	IC50 (SH-SY5Y NB cells; 48 h, read-out: IC50 48 h) [µM]	IC50 (SH-SY5Y NB cells; 72 h, read-out: IC50 72 h) [µM]	Ki (Src) [µM]
around 6%	CSc1nc(NCc2ccccc2)c2cnn(CC(Cl)c3ccccc3)c2n1 (stereo not shown) [Compound 1]	0,21 μg/mL	95.8	3.98 10^−6 cm^2/sec	46.8	21.8 ± 1.7	16.5 ± 1.67	13.5 ± 2	
50%	ClC(Cn1ncc2c(Nc3cccc(Br)c3)nc(SCCN3CCOCC3)nc21)c1ccccc1 (stereo not shown) [Compound 2]		96.0			12.6 ± 1.6	2.66 ± 0.015	2.28 ± 0.29	0.13
	CC(Cn1ncc2c(Nc3cccc(Cl)c3)nc(SCCN3CCOCC3)nc21)c1ccccc1 (stereo not shown) [Compound 3]	0,22 μg/mL	97.9	5.51 10^−6 cm^2/sec	48.9	3.04 ± 0.09	2.65 ± 0.08	1.54 ± 1.07	0.4

SMILES	drug loading [3]	Aqueous Solubility [1]	Metabolic Stability [2] [%]	PAMPA [4]	MR (Membrane Retention) [4] [%]	IC50 (SH-SY5Y NB cells; 24 h, read-out: IC50 24 h) [µM]	IC50 (SH-SY5Y NB cells; 48 h, read-out: IC50 48 h) [µM]	IC50 (SH-SY5Y NB cells; 72 h, read-out: IC50 72 h) [µM]	Ki (Src) [µM]
CC(C)Sc1nc(Nc2cccc(O)c2)c2cnn(CC(Cl)c3ccccc3)c2n1 (stereo not shown) [Compound 4]	50%	0,90 μg/mL	93.5	4.53 10^−6 cm^2/sec	49.6	13.6 ± 0.94	10.1 ± 0.5	8.63 ± 0.75	0.01
